Here are results for four molecules from patent US20140187594A1, “DIPHENYL ETHER COMPOUNDS FOR THE TREATMENT OF LIVER, LUNG DISORDERS, DIABETIC COMPLICATIONS AND CARDIOVASCULAR DISEASES” (ORCHID CHEMICALS AND PHARMACEUTICALS LTD, priority 2010, published 2014).

For data set [1], the system named is human hepatocytes (HepG2). Briefly: Selectivity of apoptosis induction: hepatocytes. Type of data set: cell-based. Particulars: HepG2, PI staining.
In data set [2] the target is T1, Rat lens Aldose reductase (Rattus norvegicus, UniProt P07943).
T1 construct: Rat lens Aldose reductase is used; from tissue; host or cells: rat lens
Briefly: Aldose reductase inhibitory activity. Type of data set: biochemical. Particulars: rat lens enzyme, 0.2 mM NADPH, pH 6.2, 25° C. Here is the method:
Rat lens Aldose reductase is used. Test compound and/or vehicle is preincubated with 3000 μg/ml enzyme (J. Enzyme Inhib. 1993, 7, 249-256; Biol. Pharm. Bull. 1994, 17, 458-459) and 0.2 mM NADPH in phosphate buffer pH 6.2 for 15 minutes at 25° C. The reaction is initiated by addition of 10 mM DL-glyceraldehyde and incubated for another 20 minutes. Determination of the amount of NADPH remained is read spectrophotometrically. Compounds are screened at 10 μM. Since enzyme activity may change from lot to lot, the concentration used will be adjusted if necessary.

The subject of data set [3] is human endothelial cells (ECV 304). Briefly: Selectivity of apoptosis induction: endothelial cells. Type of data set: cell-based. Particulars: ECV 304, PI staining. Here is the method: (§1) Propidium iodide (PI) has been widely used to measure apoptosis in different experimental systems (Eur. J. Pharmacol., 2003, 473, 117-125; Br. J. Pharmacol., 2009, 158, 1720-1734). The LX2 cells were treated with vehicle (DMSO), staurosporine (0.1 nM), compound of formula (B) (2 μM), compound of formula (C) (2 μM) for 8 hours followed by propidium iodide (PI) for 10 minute. Next, cells were washed with PBS for 2 times to remove unbound PI and the fluorescence images were acquired with DP71 camera adapted to an Olympus IX71 microscope. Apoptotic cells were detected by propidium iodide (PI) staining and % apoptotic cells per field were estimated. Number of PI positive cells and total number of cells were counted from the images and plotted as percentage of apoptotic cells per field.
(§2) The methodology adopted is same as in Experiment-7 above.
(§3) Apoptotic cells were detected by propidium iodide (PI) staining and % apoptotic cells per field were estimated.

For data set [4], the target named is T2, Matrix metalloproteinase-2 (MMP-2) (Homo sapiens, UniProt P08253).
T2 sequence (P08253 110-660): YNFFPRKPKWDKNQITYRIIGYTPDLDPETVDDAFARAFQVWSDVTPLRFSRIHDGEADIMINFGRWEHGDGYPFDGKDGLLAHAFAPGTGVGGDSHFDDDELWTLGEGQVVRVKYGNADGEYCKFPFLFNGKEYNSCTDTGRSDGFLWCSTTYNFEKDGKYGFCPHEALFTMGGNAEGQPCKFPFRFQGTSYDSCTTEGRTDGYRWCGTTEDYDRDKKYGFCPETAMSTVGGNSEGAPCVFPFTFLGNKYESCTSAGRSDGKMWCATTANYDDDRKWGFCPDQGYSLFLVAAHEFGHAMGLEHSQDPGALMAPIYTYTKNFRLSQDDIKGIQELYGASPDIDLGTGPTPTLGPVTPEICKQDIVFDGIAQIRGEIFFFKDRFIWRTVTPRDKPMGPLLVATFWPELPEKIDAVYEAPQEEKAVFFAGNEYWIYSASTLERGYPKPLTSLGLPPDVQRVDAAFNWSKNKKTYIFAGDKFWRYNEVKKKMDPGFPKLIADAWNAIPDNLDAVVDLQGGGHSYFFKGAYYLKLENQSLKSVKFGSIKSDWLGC
Briefly: Matrix metalloproteinase-2 (MMP-2) inhibitory activity. The data set is classed as biochemical. Here is the method: 3. Matrix Metalloproteinase-2 (MMP-2) Inhibitory Activity (at 10 μM)
MMP-2 enzymes are implicated in lung metastasis and there inhibition is useful to prevent or treat lung metastasis (Journal of Ethnopharmacology 2011, 133, 426-433).

For data set [5], the system named is Hepatic stellate cells (LX2). Briefly: Induction of apoptosis in hepatic stellate cells (LX2), propidium iodide staining. Type of data set: cell-based. Particulars: 8 hours, PI staining. The text has this: Propidium iodide (PI) has been widely used to measure apoptosis in different experimental systems (Eur. J. Pharmacol., 2003, 473, 117-125; Br. J. Pharmacol., 2009, 158, 1720-1734). […] Next, cells were washed with PBS for 2 times to remove unbound PI and the fluorescence images were acquired with DP71 camera adapted to an Olympus IX71 microscope. Apoptotic cells were detected by propidium iodide (PI) staining and % apoptotic cells per field were estimated. Number of PI positive cells and total number of cells were counted from the images and plotted as percentage of apoptotic cells per field.

The test system of a further data set is 3T3-L1 fibroblasts. Put plainly: Adipogenesis in 3T3-L1 mouse fibroblast (oil red O staining). Type of data set: cell-based. Particulars: 1 μM or 10 μM, 7 days. Here is the method:
3T3-L1 fibroblasts were seeded at a concentration of 10,000 cells/well in 24 well tissue culture plates in a total volume of 1 mL Dulbecco's Modified Eagle Medium (DMEM media) containing 10% fetal bovine serum, penicillin and streptomycin. […] After every two days, the media contents were replaced with fresh media and the drug. This process was carried out for 7 days. After 7 days of treatment, the cells were fixed in 10% formalin for 1 hour at […], stained with oil red 0 solution for 10 minutes and washed 6 times with 1×PBS to remove the excess stain. The plates were dried and visualized under 40× objective using Nikon E200 microscope and the pictures were taken by Nikon DXM 1200C digital camera.

The test system of another data set is collagen type 1. Put plainly: Collagen type 1 secretion in activated hepatic stellate cells (western blot). Type of data set: cell-based. As to conditions: overnight incubation, FIGS. 35a & 35b. Here is the method: HSC cells were treated with the drugs and incubated overnight. The conditioned media was taken out and the secreted proteins were extracted using TCA-acetone method. The cells were harvested for western blot analysis and 1% SDS was added to the sample. Proteins were detected by using 1:500 dilution of polyclonal antibody to collagen type 1 (Abcam; AB292) and 1:1000 dilutions of goat anti-rabbit IgG conjugated to horseradish peroxidase (Bangalore GENEI). The blots were developed by using substrate TMB/H2O2. Loading control was performed using the β-actin house keeping gene expression level.
In general terms: A western blot detects proteins with antibodies after separation by electrophoresis.

Data set [6] relates to human fibroblast cells isolated from skin biopsies. Put plainly: Selectivity of apoptosis induction: skin fibroblasts. The data set is classed as cell-based. As to conditions: PI staining. Here is the method:
as §1, §2, §3

For data set [7] the following is noted: 48 weeks, 4 mg twice daily; Hepatology, 2003, 38, 1008-1017; cited from earlier work.

For `N[C@@H](Cc1ccc(Oc2ccc(CC3SC(=O)NC3=O)cc2)cc1)C(=O)O` (stereo partly drawn) [Compound of formula (B), (2S)-2-Amino-3-(4-{4-[(2,4-dioxo-1,3-thiazolidin-5-yl)methyl]phenoxy}phenyl)propanoic acid], the “apoptosis vs vehicle (DMSO)” value in data set [1], in data set [3] and in [6] was “no significant apoptosis” in each case. Also, the IC50 (as a rule, the midpoint of a concentration-inhibition curve) in [2] came to 4.92 µM. Further, the inhibition (usually the change of the read-out against control, counted positive when it falls) at 10 µM in [4] amounted to 59%. Further, in data set [5] (2 μM), the “% apoptotic cells per field” value was 6±0.40%. For the same molecule, the “adipogenesis (intracellular lipids stained with oil red O)” value in the data set on 3T3-L1 fibroblasts is given as “did not induce adipogenesis”. For the same molecule, the “Collagen secretion by activated hepatic stellate cells” value in the data set with collagen type 1 was “markedly decreased”.
Turning to `O=C(O)Cc1ccc(Oc2ccc(CC3SC(=O)NC3=O)cc2)cc1` (stereo not shown) [Compound of formula (C), (4-{4-[(2,4-Dioxo-1,3-thiazolidin-5-yl)methyl]phenoxy}phenyl)acetic acid], the “apoptosis vs vehicle (DMSO)” value in [1], in data set [3] and in data set [6] was “no significant apoptosis” in each case. Further, half-maximal inhibition in data set [2] (IC50) required 1.43 µM. The molecule also displayed an inhibition at 10 µM in data set [4] of 16%. Also, the “% apoptotic cells per field” value in data set [5] (2 μM) turned out to be 7.5±0.64%. The “adipogenesis (intracellular lipids stained with oil red O)” value with 3T3-L1 fibroblasts is “did not induce adipogenesis”. Further, in the data set with collagen type 1, the “Collagen secretion by activated hepatic stellate cells” value was “markedly decreased”.
Take `CN(CCOc1ccc(CC2SC(=O)NC2=O)cc1)c1ccccn1` (stereo not shown) [Rosiglitazone]: in data set [7], the “median weight gain increase” value is 7.3% and the “patients in whom weight gain occurred” value is 67%.
With `CN[C@@H]1C[C@H]2O[C@@](C)([C@@H]1OC)n1c3ccccc3c3c4c(c5c6ccccc6n2c5c31)C(=O)NC4` [staurosporine, reference compound], the “% apoptotic cells per field” value in [5] (0.1 nM) was “approximately 23%”.
